Data from patent publication US20220257722A1, “COMPOSITIONS AND METHODS OF TREATING AND PREVENTING SYSTEMIC COMPLICATIONS OF ACUTE ILLNESS” (United States Government As Represented By The Department …, priority 2019, published 2022).

Tests used:
[1] = tested on: rat jejunal mucosa; assay: LPS mucosal-to-serosal transport in Ussing-chambered rat jejunal mucosa (LAL test); type: cell-based; conditions: for inhibitory effect of GLP-2 on LPS transport during OA/TCA exposure: inhibitor serosal 5 min before GLP-2 100 nM + NVP-728 10 μM; for amount of LPS transport at t=15 min (prior to OA/TCA exposure), in presence of GLP-2 + NVP-728: inhibitor serosal before GLP-2 + NVP-728; for OA/TCA-augmented LPS transport (t=30-45 min): mucosal LPS 10 μg/ml + OA 30 mM/TCA 0.1 mM; for OA/TCA-augmented LPS transport (t=30-45 min) / LPS transport at t=15 min (LPS alone, absence of OA/TCA): drug added 10 or 15 min before LPS; for LPS transport at t=15 min (LPS alone, absence of OA/TCA): mucosal LPS 10 μg/ml
Description: Short-circuit current measurements in Ussing chambered preparations. Mucosa-submucosa preparations were prepared from the mid-jejunum (˜20 cm from the pyloric ring) by muscle stripping using fine forceps under a stereomicroscope. Two or four preparations were prepared from one animal. The tissue was then mounted between two hemi-sliders with an aperture=0.3 cm^2 (Physiologic Instruments, San Diego, Calif., USA). Chambers were bathed with serosal and luminal bathing solutions in a volume of 4 ml each, maintained at 37° C. using a water recirculating heating system. The serosal Krebs-Ringer solution contained (in mM) NaCl, 117; KCl, 4.7; MgCl2, 1.2; NaH2PO4, 1.2; CaCl2, 2.5; NaHCO3, 25; glucose, 11; and bubbled with 95% O2-5% CO2 to maintain pH at 7.4. The luminal bathing solution contained NaCl, 136; KCl, 2.6; CaCl2, 1.8; HEPES, 10 (pH 7.0); mannitol, 11; and bubbled with 100% O2. The tissues were short-circuited by a voltage clamp (VCC MC6, Physiologic Instruments) at zero potential difference with automatic compensation for solution resistance. Short-circuit current (Isc) was continuously measured with tissue conductance (Gt) and TEER (Ω·cm^2) determined every 20 sec in order to assess the tissue integrity during the LPS and lipid exposure. The current was recorded by the DataQ system (Physiologic Instruments). IND (10 μM) was added to the serosal bath to eliminate the effects of endogenous prostaglandin production. The tissues were stabilized for ˜30 min before the addition of test chemicals.
LPS movement from mucosal to serosal solution. LPS movement m-to-s was assessed using a LAL test kit (Pierce Chromogenic Endotoxin Quant Kit, Pierce Biotechnology, Rockford, Ill., USA), which eliminates non-specific detection of (1,3)-β-D-glucan, then reduces false-positive LPS measurements. After tissue stabilization, time was set as t=0 min. Fifty μl of the serosal solution was collected at 0 min as a blank sample, followed by collection at t=15, 30 and 45 min. At t=0 min, LPS (10 μg/ml) was added into the mucosal solution. Vehicle (PBS alone), TCA alone (0.1 mM) in PBS or OA (3, 10, 30 mM) with TCA (0.1 mM) in PBS was added into the mucosal solution at t=15 min. The tissues were pretreated with drugs 10 or 15 min before the addition of LPS (i.e. at t=−10 or −15 min). The collected serosal solutions were kept at −80° C. until use. LPS content in the serosal solutions was measured with the LAL test according to the manufacturer's protocol. The value of background at t=0 min was subtracted and the serosal LPS appearance was expressed as Δ[LPS] (EU/ml). In some experiments, FITC-LPS (10 μg/ml) was used instead of LPS. Serosal FITC-LPS content was assessed by FITC fluorescence intensity measurement using a multi-mode microplate reader (Synergy-2, BioTek Instruments, Inc., Winooski, Vt., USA). To detect macromolecule m-to-s movement across the mucosa, FD4 (0.1 mM) was applied into the mucosal bath and serosal FD4 content was assessed by FITC fluorescence intensity measurement.
Ussing chamber study: drug treatment. The following drugs were pretreated by addition to the mucosal (m) or serosal (s) bath 10 or 15 min before LPS addition to the mucosal bath: the lipid raft inhibitor MβCD (1 mM, m), the CD36 inhibitor SSO (0.1 mM, m), the muscarinic agonist CCh (10 μM, s), a competitive substrate for IAP (IAP inhibitor) GP (10 mM, m) (47), GLP-2 (100 nM, s), the dipeptidyl peptidase-4 (DPP4) inhibitor NVP-728 (10 μM, s) (36), the stable GLP-2 analog TDG (100 nM) (13), the insulin-like growth factor-1 (IGF-1) receptor tyrosine kinase inhibitor NVP-AEW-541 (10 μM, s) (22), the epidermal growth factor (EGF) tyrosine kinase inhibitor PD153035 (1 μM, s) (6), the nitric oxide (NO) synthase (NOS) inhibitor L-NAME (0.1 mM, s) and the selective VPAC1 antagonist PG97-269 (1 μM) (26).

[2] = tested on: murine model of pancreatitis; assay: Cerulein-induced acute pancreatitis in mice: organ cytokines, PV LPS, FD4 uptake, histology; type: in vivo, C57BL/6 mice
Description: Methods. Pancreatitis was induced in C57BL/6 male and female mice at 8-10 weeks of age by multiple injections of cerulein (50 μg/kg, ip, hourly, 8 times). Samples (e.g., PV and abdominal arterial blood) were collected 0, 18, and 24 hrs after the final injection of cerulein. Tissues were removed and stored for histology and real-time polymerase chain reaction (PCR)-based expression analysis. TDG, (500 μg/kg, ip) was given 0 and 18 hrs after the final injection of cerulein, followed by sampling 24 hrs after the final injection of cerulein. Proinflammatory cytokines was assessed by real-time PCR; PV LPS levels were measured using the limulus amebocyte lysate (LAL) test.

[3] = cited from earlier work
[4] = tested on: rat jejunal mucosa; assay: FITC-LPS mucosal-to-serosal transport in Ussing-chambered rat jejunal mucosa (FITC fluorescence); type: cell-based; conditions: mucosal FITC-LPS 10 μg/ml; SSO 0.1 mM or MβCD 1 mM
Description: Short-circuit current measurements in Ussing chambered preparations. Mucosa-submucosa preparations were prepared from the mid-jejunum (˜20 cm from the pyloric ring) by muscle stripping using fine forceps under a stereomicroscope. Two or four preparations were prepared from one animal. The tissue was then mounted between two hemi-sliders with an aperture=0.3 cm^2 (Physiologic Instruments, San Diego, Calif., USA). Chambers were bathed with serosal and luminal bathing solutions in a volume of 4 ml each, maintained at 37° C. using a water recirculating heating system. […] Short-circuit current (Isc) was continuously measured with tissue conductance (Gt) and TEER (Ω·cm^2) determined every 20 sec in order to assess the tissue integrity during the LPS and lipid exposure. The current was recorded by the DataQ system (Physiologic Instruments). […]
LPS movement from mucosal to serosal solution. LPS movement m-to-s was assessed using a LAL test kit (Pierce Chromogenic Endotoxin Quant Kit, Pierce Biotechnology, Rockford, Ill., USA), which eliminates non-specific detection of (1,3)-β-D-glucan, then reduces false-positive LPS measurements. […] LPS content in the serosal solutions was measured with the LAL test according to the manufacturer's protocol. The value of background at t=0 min was subtracted and the serosal LPS appearance was expressed as Δ[LPS] […]

[5] = tested on: rat jejunal mucosa; assay: LPS mucosal-to-serosal transport in rat jejunal mucosa read by TLR4 reporter cell assay; type: cell-based; conditions: same samples as FITC measurement; SSO 0.1 mM or MβCD 1 mM
Description: TLR-4 reporter cell assay. Since the LAL test may overestimate LPS levels due to nonspecific detection of […] (66), and FITC-LPS method measures LPS fluorescence without regard to the functional activity of LPS, experiments were carried out to determine whether the samples contained intact, functional LPS that is a preferential TLR-4 ligand. In order to confirm that intact LPS was measured in the samples used for measurements in the Ussing chamber study, a TLR4 reporter cell assay was used that consists of HEK293 cells co-transfected with murine TLR4, myeloid differentiation 2 and CD14 co-receptor genes and an inducible secreted embryonic alkaline phosphatase (SEAP) reporter gene with nuclear factor-kappa B (NF-kB) and activator protein 1 (AP-1) binding motifs (HEK-Blue mTLR-4, InvivoGen, San Diego, Calif.). Cells were harvested in a 96-well plate with standards and samples for 24 hr. The presence of LPS was detected as induced SEAP activity in the medium using HEK-Blue Detection (InvivoGen) by measuring absorbance at 655 nm with Synergy-2 24 hrs after the addition of standards and samples, according to the manufacturer's protocol. Ultrapure LPS from E. coli 055:B5 (LPS-B5 Ultrapure, InvivoGen) was used as standard at a range of 0.01-100 ng/ml.

[6] = 24 hrs after cerulein treatment

| Compound | inhibitory effect of GLP-2 on LPS transport during OA/TCA exposure [1] | amount of LPS transport at t=15 min (prior to OA/TCA exposure), in presence of GLP-2 + NVP-728 [1] | OA/TCA-augmented LPS transport (t=30-45 min) [1] | OA/TCA-increased serosal LPS content measured by FITC fluorescence intensity [4] | LPS transport at t=15 min (LPS alone, absence of OA/TCA) [1] | LPS m-to-s transport during OA/TCA exposure by TLR4 reporter cell assay [5] | also measured |
| --- | --- | --- | --- | --- | --- | --- | --- |
| [Ac-His^1, D-Phe^2, Lys^15, Arg^16, Leu^27]-VIP(1-7)-GRF(8-27) (HFDAVFTNSYRKVLKRLSARKLLQDIL; HELM PEPTIDE1{[ac].H.[dF].D.A.V.F.T.N.S.Y.R.K.V.L.K.R.L.S.A.R.K.L.L.Q.D.I.L.[am]}$$$$V2.0; SMILES CC[C@H](C)[C@H](NC(=O)[C@H](CC(=O)O)NC(=O)[C@H](CCC(N)=O)NC(=O)[C@H](CC(C)C)NC(=O)[C@H](CC(C)C)NC(=O)[C@H](CCCCN)NC(=O)[C@H](CCCNC(=N)N)NC(=O)[C@H](C)NC(=O)[C@H](CO)NC(=O)[C@H](CC(C)C)NC(=O)[C@H](CCCNC(=N)N)NC(=O)[C@H](CCCCN)NC(=O)[C@H](CC(C)C)NC(=O)[C@@H](NC(=O)[C@H](CCCCN)NC(=O)[C@H](CCCNC(=N)N)NC(=O)[C@H](Cc1ccc(O)cc1)NC(=O)[C@H](CO)NC(=O)[C@H](CC(N)=O)NC(=O)[C@@H](NC(=O)[C@H](Cc1ccccc1)NC(=O)[C@@H](NC(=O)[C@H](C)NC(=O)[C@H](CC(=O)O)NC(=O)[C@@H](Cc1ccccc1)NC(=O)[C@H](Cc1c[nH]cn1)NC(C)=O)C(C)C)[C@@H](C)O)C(C)C)C(=O)N[C@@H](CC(C)C)C(N)=O) [PG97-269] | reversed | no effect |  |  |  |  |  |
| CC[C@H](C)[C@H](NC(=O)[C@H](Cc1ccccc1)NC(=O)[C@H](CC(=O)O)NC(=O)[C@H](CCCNC(=N)N)NC(=O)[C@H](C)NC(=O)[C@H](C)NC(=O)[C@H](CC(C)C)NC(=O)[C@H](CC(N)=O)NC(=O)[C@H](CC(=O)O)NC(=O)[C@H](CC(C)C)NC(=O)[C@@H](NC(=O)[C@@H](NC(=O)[C@H](CC(N)=O)NC(=O)[C@H](CCSC)NC(=O)[C@H](CCC(=O)O)NC(=O)[C@H](CC(=O)O)NC(=O)[C@H](CO)NC(=O)[C@H](Cc1ccccc1)NC(=O)[C@H](CO)NC(=O)CNC(=O)[C@H](CC(=O)O)NC(=O)CNC(=O)[C@@H](N)Cc1c[nH]cn1)[C@@H](C)O)[C@@H](C)CC)C(=O)N[C@@H](CC(N)=O)C(=O)N[C@@H](Cc1c[nH]c2ccccc12)C(=O)N[C@@H](CC(C)C)C(=O)N[C@H](C(=O)N[C@@H](CCC(N)=O)C(=O)N[C@H](C(=O)N[C@@H](CCCCN)C(=O)N[C@H](C(=O)N[C@H](C(=O)N[C@@H](CC(=O)O)C(=O)O)[C@@H](C)O)[C@@H](C)CC)[C@@H](C)O)[C@@H](C)CC [TDG] |  |  | inhibited |  |  |  | PV LPS levels ([2]; 18 and 24 hrs after cerulein treatment, LAL test, TDG 500 μg/kg ip): significantly reduced; PV FD4 levels ([2]; 18 and 24 hrs after cerulein treatment, TDG 500 μg/kg ip): significantly reduced; histological changes in the pancreas [2, 6]: no effect; lung inflammation (histology) [2, 6]: reduced; Plasma TNFα levels ([2]; 24 hrs after cerulein treatment, TDG 500 μg/kg ip): reversed; increased expression of IL-1β and IL-6 in the pancreas ([2]; TDG 500 μg/kg ip 0 and 18 hrs after final cerulein): no effect; elevated lipase levels ([2]; TDG 500 μg/kg ip 0 and 18 hrs after final cerulein, plasma): no effect; inflammatory cytokine expression in the lung ([2]; TDG 500 μg/kg ip 0 and 18 hrs after final cerulein, sampling 24 hrs, real-time PCR): significantly reduced; elimination half-life ([3]; in humans): about 2 hours; serum t1/2 ([3]; reference [44]): ~2 h |
| COC(=O)[C@@H](N)CCCNC(=N)N[N+](=O)[O-] [L-NAME, Nω-nitro-L-arginine methyl ester] | reversed | no effect |  |  |  |  |  |
| methyl-β-cyclodextrin [MβCD] |  |  | inhibited | abolished | no effect | abolished |  |
| CCCCCCCC/C=C\CCCCCCCC(=O)ON1C(=O)CC(S(=O)(=O)O)C1=O (centres unmarked) [SSO, sulfosuccinimidyl oleate] |  |  | abolished | abolished | no effect | abolished |  |
